These results are taken from patent US11691992B2 (Anacor Pharmaceuticals, Inc., priority 2017, dated 2023).

What all share (type): cell-based
Test [1] has as its system IL3000 T. congolense (drug sensitive) strain. Put plainly: In vitro Alamar Blue 72 h drug sensitivity assay for T. congolense. The conditions noted are these: Trypanosoma congolense; for IC50: bloodstream form, 69 h + 3 h resazurin, 34° C., classes A-C, read-out: IC50: I Org. Growth T. congolense IL-3000, 3 d. In a few lines:
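Bloodstream-form trypanosomes in HMI medium with 20% bovine serum, exposed to compound for 69 h at 34 °C, 5% CO2, then resazurin for 3 h more. Fluorescence read at 536/588 nm. IC50 from 11-point sigmoidal dose-response curves, at least three independent runs.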

For test [2], the system named is Trypanosoma brucei rhodesiense STIB 900 strain. As to the kind of experiment: Trypanosoma brucei rhodesiense STIB 900 screening assay. As to conditions: 72 h. The method, then: Example 114. Trypanosoma brucei rhodesiense STIB 900 Screening Assay Procedure
The Trypanosoma brucei rhodesiense STIB 900 strain was isolated in 1982 from a human patient in Tanzania and after several mouse passages cloned and adapted to axenic culture conditions (Baltz, et al., EMBO Journal 4: 1273-1277 (1985); Thuita, et al., Acta Tropica 108: 6-10 (2008)). Minimum Essential Medium (50 μL) supplemented with 25 mM HEPES, 1 g/L additional glucose, 1% MEM non-essential amino acids (100×), 0.2 mM 2-mercaptoethanol, 1 mM Na-pyruvate and 15% heat inactivated horse serum was added to each well of a 96-well microtiter plate. Serial drug dilutions of seven 3-fold steps covering a range from 90 to 0.123 μg/mL were prepared. Then 10^4 bloodstream forms of T. b. rhodesiense STIB 900 in 50 μL was added to each well and the plate incubated at 37° C. under a 5% CO2 atmosphere for 72 h. 10 μL Alamar Blue (resazurin, 12.5 mg in 100 mL double-distilled water) was then added to each well and incubation continued for a further 2-4 h (Raz, et al., Acta Tropica 68: 139-47 (1997)). Then the plates were read with a Spectramax Gemini XS microplate fluorometer (Molecular Devices Corporation, Sunnyvale, Calif., USA) using an excitation wavelength of 536 nm and an emission wavelength of 588 nm. Data were transferred into the graphic program Softmax Pro (Molecular Devices), which calculated IC50 values.

For test [3], the system named is L. infantum MHOM/MA(BE)/67 amastigotes in primary peritoneal mouse macrophages. Put plainly: Leishmania infantum intracellular amastigote assay in mouse macrophages. The conditions noted are these: Macrophage, 120 h. How it is done: Example 111. Leishmania infantum Intracellular Amastigote Assay in Mouse Macrophages
L. infantum MHOM/MA(BE)/67 amastigotes were collected from the spleen of an infected donor hamster and used to infect primary peritoneal mouse macrophages. (Kaiser, M., Maes, L., Tadoori, L. P., Spangenberg, T., Ioset, J.-R. J. Biomol. Screen. 2015 20(5), 634-35.) To determine in vitro antileishmanial activity, 3×10^4 macrophages were seeded in each well of a 96-well plate. Culture medium was RPMI-1640 supplemented with L-glutamine (20 mM), 16.5 mM sodium hydrogen carbonate, and 10% fetal calf serum (FCS). After 2 d of outgrowth, 5×10^5 amastigotes/well were added and incubated for 2 h at 37° C. Prediluted samples to be tested were subsequently added, and the plates were further incubated for 5 d at 37° C. and 5% CO2. Total parasite burdens in the well were microscopically assessed after Giemsa staining and expressed as a percentage of the total burden in the blank controls without compound. In treated wells with high amastigote burdens, an overall estimate of the total burden per well was made without discrimination between the number of infected macrophages and the number of amastigotes per infected cell. In treated wells with low burdens, exact counting was performed. The 50% inhibitory concentrations (IC50s) were then generated for each dose response test using GraphPad Prism (GraphPad Software Inc., San Diego, Calif.) using the nonlinear regression (sigmoidal dose-response/variable slope) equation.

Test [4] has as its system bloodstream forms of T. b. rhodesiense STIB 900. Put plainly: T. brucei rhodesiense STIB 900 growth inhibition assay. The conditions noted are these: Trypanosoma brucei, 72 h. An excerpt: Example 110. T. brucei rhodesiense STIB 900 Growth Inhibition Assay
The parasite strain used in this assay was isolated in 1982 from a human patient in Tanzania and after several mouse passages cloned and adapted to axenic culture conditions, ((a) Baltz, T., D. Baltz, C. Giroud, and J. Crockett. EMBO Journal, 1985, 4:1273-1277. (b) Thuita, J. K., S. M. Karanja, T. Wenzler, R. E. Mdachi, J. M. Ngotho, J. M. Kagira, R. Tidwell, and R. Brun. Acta Tropica 2008, 108:6-10.) Minimum Essential Medium (50 μl) supplemented with 25 mM HEPES, 1 g/l additional glucose, 1% MEM non-essential amino acids (100×), 0.2 mM 2-mercaptoethanol, 1 mM Na-pyruvate and 15% heat inactivated horse serum was added to each well of a 96-well microtiter plate. Serial drug dilutions of seven 3-fold dilution steps covering a range from 90 to 0.123 μg/ml were prepared. Then 10^4 bloodstream forms of T. b. rhodesiense STIB 900 in 50 μl was added to each well and the plate incubated at 37° C. under a 5% CO2 atmosphere for 72 h. 10 μl Alamar Blue (resazurin, 12.5 mg in 100 ml double-distilled water) was then added to each well and incubation continued for a further 2-4 h, (Raz, B., M. Iten, Y. Grether-Buhler, R. Kaminsky, and R. Brun. Acta Trap 1997, 68:139-47.) Then the plates were read with a Spectramax Gemini XS microplate fluorometer (Molecular Devices Cooperation, Sunnyvale, Calif., USA) using an excitation wave length of 536 nm and an emission wave length of 588 nm. Data were analyzed using the microplate reader software Softmax Pro (Molecular Devices Cooperation, Sunnyvale, Calif., USA).

The test system of test [5] is TdTomato-modified T. cruzi (CL strain) in Vero cells. As to the kind of experiment: In vitro IC50 measurement of T. cruzi amastigote killing using TdTomato-modified T. cruzi (CL strain). The conditions noted are these: Trypanosoma cruzi, 72 h, fluorescence, read-out: IC50: I Org. amastigote Growth T. cruzi CL TdTomato, 3 d. In short, it runs like this: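 Vero cells were infected with tdTomato-expressing CL-strain parasites and dosed at 5 uM–5 nM. Fluorescence (ex 544/em 612 nm) was read at day 0 and again after 72 h at 37 °C, with day 0 values subtracted. IC50 and IC90 came from nonlinear regression.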

For test [6], the system named is bloodstream-form trypanosome T. brucei brucei 427 strain. Put plainly: Trypanosoma brucei brucei high-throughput screening assay (resazurin). The method, then:
Example 105. Trypanosoma brucei brucei High-Throughput Screening Assay Procedure
All experiments were conducted with the bloodstream-form trypanosome T. brucei brucei 427 strain obtained from Seattle Biomedical Research Institute (Seattle, Wash.). Parasites were cultured in T-25 vented cap flasks and kept in humidified incubators at 37° C. and 5% CO2. The parasite culture media was complete HMI-9 medium containing 10% FBS, 10% Serum Plus medium and penicillin/streptomycin. To ensure log growth phase, trypanosomes were sub-cultured at appropriate dilutions every 2-3 days. Approximately 50 microliters of log phase cultures were diluted 1:10 in HMI-9 and 10 μL of the diluted culture was removed and counted using a hemocytometer to determine parasite concentration. Parasites were diluted by addition of an appropriate volume of HMI-9 to achieve a final parasite concentration of 2×10^5/mL. Compounds of the invention to be tested were serially diluted in DMSO and 0.5 μL added to 49.5 μL HMI-9 in triplicate 96-well plates using a Biomek NX liquid handler. Parasites from the diluted stock were added to each well (50 μL) using a Multidrop 384 dispenser to give a final concentration of 1.0×10^5/ml parasites in […] for DMSO. Trypanosomes were incubated with compounds for 72 hrs at 37° C. with 5% CO2. Resazurin (20 μL of 12.5 mg/ml stock) from Sigma-Aldrich was added to each well and plates were incubated for an additional 2-4 hrs. Assay plates were read using an EnVision plate reader at an excitation wavelength of 544 nm and emission of 590 nm. Triplicate data points were averaged to generate sigmoidal dose response curve and determine IC50 values using XLfit curve fitting software from IDBS (Guildford, UK).

Where [7] appears, read: STIB 900 bloodstream forms, Alamar Blue, protocol of Example 114, read-out: Swiss TPH T b rhodesiense IC50.
Where [8] appears, read: amastigotes in primary peritoneal mouse macrophages, 5 d, Giemsa staining, read-out: Inhibition of Organism Growth in Leishmania infantum MHOM/MA/BE/67, 5 d.
The mark [9] stands for this setting: bloodstream forms, Alamar Blue, protocol of Example 110, read-out: IC50: I Org. Growth T. brucei rhodesiense STIB 900, 3 d.
Where [10] appears, read: bloodstream form, 72 hrs incubation, resazurin, read-out: IC50: I Org. Growth T. brucei brucei SBRI 427, 3 d.
Setting [11] is: 72 h, read-out: IC50: I Org. Growth T. brucei brucei SBRI 427, 3 d [uM].

The structures appear in SMILES notation. Where two headings read alike, the source gives them in different places.

Turning to `Cc1cccc(-n2cc(C(=O)Nc3ccc4c(c3)B(O)OC4)nn2)n1` [Example 57, N-(1-hydroxy-1,3-dihydrobenzo[c][1,2]oxaborol-6-yl)-1-(6-methylpyridin-2-yl)-1H-1,2,3-triazole-4-carboxamide], the IC50 in test [1] was below 100 nM; in test [2] (setting [7]), below 100 nM; in test [3] (setting [8]) it was below 3 µM; in test [4] (setting [9]), below 0.1 µM; in test [5], below 600 nM.
Take `O=C(Nc1ccc2c(c1)B(O)OC2)c1cn(-c2cccnc2)nn1` [Example 63, N-(1-hydroxy-1,3-dihydrobenzo[c][1,2]oxaborol-6-yl)-1-(pyridin-3-yl)-1H-1,2,3-triazole-4-carboxamide]: the IC50 in test [1] is below 100 nM; in test [2] (setting [7]), 100 to 250 nM; in test [3] (setting [8]), 20 to 100 µM; in test [4] (setting [9]) it was 0.1 to 0.3 µM; in test [5] it was 1100 to 10000 nM.
As to `COc1cccc(-n2cc(C(=O)Nc3ccc4c(c3)B(O)OC4)nn2)n1` [Example 64, N-(1-hydroxy-1,3-dihydrobenzo[c][12]oxaborol-6-yl)-1-(6-methoxypyridine-2-yl)-1H-1,2,3-triazole-4-carboxamide], the IC50 in test [2] (read-out: Swiss TPH T b rhodesiense IC50) is below 100 nM; in test [3] (read-out: Inhibition of Organism Growth in Leishmania infantum MHOM/MA/BE/67, 5 d [uM]), below 3 µM; in test [4] (read-out: IC50: I Org. Growth T. brucei rhodesiense STIB 900, 3 d [uM]), 0.1 to 0.3 µM.
On to `COc1cccc(-n2nnc(C(=O)Nc3ccc4c(c3)B(O)OC4)c2C)n1` [Example 65, N-(1-hydroxy-1,3-dihydrobenzo[c][1,2]oxaborol-6-yl)-1-(6-methoxypyridin-2-yl)-5-methyl-1H-1,2,3-triazole-4-carboxamide], for which the IC50 is below 100 nM in test [1]; below 100 nM in test [2] (setting [7]); below 3 µM in test [3] (setting [8]); below 0.1 µM in test [4] (setting [9]); below 600 nM in test [5].
For the molecule `Cc1cccc(-n2nnc(C(=O)Nc3ccc4c(c3)B(O)OC4)c2C)n1` [Example 81, N-(1-hydroxy-1,3-dihydrobenzo[c][1,2]oxaborol-6-yl)-5-methyl-1-(6-methylpyridin-2-yl)-1H-1,2,3-triazole-4-carboxamide], the IC50 in test [1] is below 100 nM; in test [2] (setting [7]) it was 100 to 250 nM; in test [3] (setting [8]), 3 to 19.9 µM; in test [4] (setting [9]) it was 0.1 to 0.3 µM; in test [5], 1100 to 10000 nM.
As for `Cc1c(C(=O)Nc2ccc3c(c2)B(O)OC3)nnn1-c1ccc(Cl)cc1` [Example 90, 1-(4-chlorophenyl)-N-(1-hydroxy-1,3-dihydrobenzo[c][1,2]oxaborol-6-yl)-5-methyl-1H-1,2,3-triazole-4-carboxamide], the IC50 in test [6] (setting [10]) fell in the range of 0.075 to 0.15 µM.
Regarding `Cn1nc(-c2ccccn2)nc1C(=O)Nc1ccc2c(c1)B(O)OC2` [Example 95, N-(1-hydroxy-1,3-dihydrobenzo[c][1,2]oxaborol-6-yl)-1-methyl-3-(pyridine-2-yl)-1H-1,2,4-triazole-5-carboxamide], the IC50 in test [6] (setting [11]) lay within 0.151 to 10 µM.
Take `Cn1nc(-c2ccccc2)nc1C(=O)Nc1ccc2c(c1)B(O)OC2` [Example 96, N-(1-hydroxy-1,3-dihydrobenzo[c][1,2]oxaborol-6-yl)-1-methyl-3-phenyl-1H-1,2,4-triazole-5-carboxamide]: the inhibition at 1 µM in test [1] (read-out: inhibition of T. congolense IL-3000 growth at a concentration of 1.0 μM (classes D, E)) is below 75%. In addition, in test [6] (setting [10]), the IC50 fell in the range of 0.151 to 10 µM.
For `O=C(Nc1ccc2c(c1)B(O)OC2)c1nc(-c2cccnc2)n[nH]1` [Example 98, N-(1-hydroxy-1,3-dihydrobenzo[c][1,2]oxaborol-6-yl)-3-(pyridin-3-yl)-1H-1,2,4-triazole-5-carboxamide], in test [6] (setting [11]), the IC50 lay in the range of 0.151 to 10 µM.
As for `Cn1nc(C(=O)Nc2ccc3c(c2)B(O)OC3)nc1-c1ccc(F)cc1` [Example 100, 5-(4-Fluorophenyl)-N-(1-hydroxy-1,3-dihydrobenzo[c][1,2]oxaborol-6-yl)-1-methyl-1H-1,2,4-triazole-3-carboxamide], the IC50 in test [6] (setting [10]) is 0.075 to 0.15 µM.
As to `Cn1nc(C(=O)Nc2ccc3c(c2)B(O)OC3(C)C)nc1-c1ccccc1` [Example 103, N-(1-hydroxy-3,3-dimethyl-1,3-dihydrobenzo[c][1,2]oxaborol-6-yl)-1-methyl-5-phenyl-1H-1,2,4-triazole-3-carboxamide], the IC50 is below 100 nM in test [2] (setting [7]), 3 to 19.9 µM in test [3] (setting [8]) and 0.31 to 10 µM in test [4] (setting [9]).
